Here are results for nine compounds from patent US20060217368A1, “Drug for nerve regeneration” (Kyowa Hakko Kogyo Co., Ltd., priority 2003, published 2006).

Type in all cases: cell-based, rat
Data set [1] deals with ANSC-7 cells. Kind of data set: Suppression of neuropoiesis by associated beta amyloid peptide and relief by GSK-3 inhibitor (Tuj1 positive neurons). As to conditions: day 6. The method, then: A beta amyloid peptide (hereinafter, referred to as Aβ) is a principal component constituting senile plaques, and it is a substance which has been believed to be a cause of Alzheimer's disease [Proc. Nat. Acad. Sci., USA, 98, 11039-11041 (2001)]. Aβ [1-40] (manufactured by BIOSOURCE) was dissolved in 0.1% (v/v) trifluoroacetic acid (Manufactured by Nacalai Tesque, Inc.) to give 10 mg/ml, and incubated at 25° C. for 1 hour. Thereafter, the solution was diluted in PBS to give 0.5 mg/ml. The diluted solution was incubated at 25° C. for 24 hrs to allow the formation of an associated product [J. Biol. Chem., 276, 42027-42034 (2001)]. […] On day 2 and day 4 following the induction of differentiation, the entire medium was changed to the differentiation inducing medium alone, respectively, and the number of neurons was measured on day 6 following induction of the differentiation.
According to a similar method to that shown in Experimental Example 8, lithiumchloride at a final concentration of 3 mmol/l, or Kenpaullone at a final concentration of 2 μmol/l was added to a differentiation inducing medium containing the associated Aβ at a final concentration of 0.1 mg/ml upon inducing differentiation of the ANSC-7 cell, and the number of Tuj1 positive neurons on day 6 following inducing differentiation was analyzed.

In data set [2] the test system is ANSC-7 cells. Kind of data set: Neuropoiesis of ANSC-7 adult neural stem cells: number of Tuj1 positive neurons after induction of differentiation. How it is done: ANSC-7 cells which can be obtained by the method described in Reference Example 2 are plated at 1.8×10^5 cells per well in a 12-well culture dish which was coated with polyornithine and laminin and was filled with a DMEM/F12 medium containing 1 ml of a 1% N2 supplement (manufactured by Invitrogen Corporation) and 20 ng/ml FGF-2 (manufactured by PeproTech Inc.), and incubated overnight. Entire culture fluid is changed into a DMEM/F12 medium containing 0.5% fetal bovine serum and a 1% N2 supplement without including FGF2 (manufactured by Invitrogen Corporation, hereinafter, referred to as differentiation inducing medium) to induce differentiation. Upon the induction, the substance that inhibits the activity of GSK-3 serially diluted in PBS (manufactured by Invitrogen Corporation) or DMSO in the range of from 0.01 mmol/l to […] is added thereto in 1/1000 volume. As a negative control, the same volume of PBS or DMSO is added.
After changing the culture fluid into the differentiation inducing medium supplemented with each substance that inhibits the activity of GSK-3 every three days, and inducing differentiation for 6 days, it is replaced with a 15% neutral buffered formalin solution (Wako Pure Chemical Industries, Ltd.) to allow fixation for 20 min. Thereafter, washing with PBS containing 0.3% Triton X-100 (manufactured by Nacalai Tesque, Inc.) for 5 min is repeated three times. Next, after blocking the cells using a 10% goat fetal serum diluted in PBS (manufactured by DAKO Corporation) for 2 hrs, a reaction is allowed with a mouse anti-Tuj1 (β tubulin isotype III) antibody (manufactured by Sigma-Aldrich Corporation) diluted 1000 times in PBS as a primary antibody at 4° C. for 16 hrs. Thereafter, washing with PBS containing 0.3% Triton X-100 for 5 min is repeated three times.
Next, a reaction is allowed with Alexa Fluor 488 conjugate goat anti-mouse IgG antibody (manufactured by Molecular Probes, Inc.) diluted 1000 times as a secondary antibody at room temperature for 2 hrs. At the same time, Bisbenzimide H 33342 Fluorochrome, Trihydrochloride (manufactured by CALBIOCHEM, hereinafter, described as H33342) is added thereto to give the final concentration of 1 μg/ml to stain the nucleus. After immersing in PBS, observation with an inverted fluorescence microscope (manufactured by Nikon Corporation) is conducted, and the number of Tuj1 positive cells per 2.44 mm^2 is counted.

Data set [3] deals with ANSC-7 cells. As to the kind of experiment: Apoptosis of ANSC-7 cells (in situ cell death detection kit, fluorescein). As to conditions: final concentration 0.1 mg/ml; 6 days; vs PBS. How it is done:
According to the method described in the above section 7, lithium chloride was added to give the final concentration of 3 mmol/l into the medium containing ANSC-7 cells followed by culture for 6 days. ANSC-7 cells thus cultured after adding lithium chloride, and ANSC-7 cells cultured after adding PBS as a control were allowed to a reaction using an in situ cell death detection kit, fluorescein (manufactured by Roche Diagnostics K.K.) according to the attached protocol. The cells were observed using an inverted fluorescence microscope (manufactured by Nikon Corporation), and the number of apoptotic cell was counted per 2.44 mm^2.
According to a similar method to that shown in Experimental Example 8, ANSC-7 cells subjected to induction of differentiation for 6 days by a differentiation inducing medium containing the associated Aβ at the final concentration of 0.1 mg/ml, and ANSC-7 cells subjected to induction of differentiation by a medium containing PBS as a control were allowed to react using an in situ cell death detection kit, fluorescein (manufactured by Roche Diagnostics K.K.) according to the attached protocol. The cells were observed using an inverted fluorescence microscope (manufactured by Nikon Corporation), and the number of apoptotic cells per 2.44 mm^2 was counted.

A further data set deals with GSK-3α. As to the kind of experiment: Amount of GSK-3α in ANSC-7 cells after siRNA introduction (Western blotting). As to conditions: 150 pmol per 1×10^6 ANSC-7 cells; 48 hrs following seeding. Background: A western blot detects proteins with antibodies after separation by electrophoresis.
For data set [4], the system named is ANSC-7 cells. As to the kind of experiment: Neuropoiesis of ANSC-7 adult neural stem cells: number of Tuj1 positive neurons after induction of differentiation. As to conditions: siRNA introduced into ANSC-7; day 6.
The mark [5] stands for this setting: final concentration 2 μmol/l, day 6.
[6] abbreviates: final concentration 5 μmol/l, day 6.

Turning to `O=C1Cc2c([nH]c3ccc(Br)cc23)-c2ccccc2N1` [Kenpaullone, 9-bromo-7,12-dihydro-indolo[3,2-d][1]benzazepin-6(5H)-one], the “increase in number of Tuj1 positive neurons in comparison with associated Aβ alone” value with ANSC-7 cells [1] (2 μmol/l with 0.1 mg/ml associated Aβ) was 400%. The “number of Tuj1 positive neurons in comparison with the negative control” value in the data set with ANSC-7 cells [2] (final concentration 0.5 μmol/l, day 6) is reported as 1.3 times; with ANSC-7 cells [2] (setting [5]), 2.7 times; in the data set on ANSC-7 cells [2] (setting [6]), 3.7 times.

Consider `CC[C@H](CO)Nc1nc(NCc2ccccc2)c2ncn(C(C)C)c2n1` [Roscovitine], for which the “number of Tuj1 positive neurons in comparison with the negative control” value with ANSC-7 cells [2] (setting [5]) is 1.0 times; in the data set with ANSC-7 cells [2] (setting [6]), 1.2 times; in the data set with ANSC-7 cells [2] (final concentration 10 μmol/l, day 6) it was 1.1 times.

On to `Cn1cc(C2=C(c3ccc(Cl)cc3Cl)C(=O)NC2=O)c2ccccc21` [SB-216763, 3-(2,4-dichlorophenyl)-4-(1-methylindole-3-yl)-1H-pyrrole-2,5-dione], for which the “number of Tuj1 positive neurons relative to control” value with ANSC-7 cells [2] (final concentration 0.3 μmol/l, day 6) worked out at 1.2 times; in the data set with ANSC-7 cells [2] (final concentration 1.0 μmol/l, day 6), 1.8 times.

For the compound `C=C[C@@]1(C)CC(=O)[C@]2(O)[C@@]3(C)[C@@H](O)CCC(C)(C)[C@@H]3[C@H](O)[C@H](OC(C)=O)[C@@]2(C)O1` [forskolin], the “rate of increase in neurons” value in the data set on ANSC-7 cells [2] (1 μmol/l, coexistence with 3 mmol/l lithium chloride) was 1.2 times; in the data set with ANSC-7 cells [2] (1 μmol/l, without lithium chloride) it was 1.9 times; with ANSC-7 cells [2] (5 μmol/l, coexistence with 3 mmol/l lithium chloride), 1.1 times; in the data set on ANSC-7 cells [2] (5 μmol/l, without lithium chloride), 2.2 times.

In the case of `[Cl-].[Na+]` [sodium chloride], the “number of Tuj1 positive neurons relative to control” value in the data set on ANSC-7 cells [2] (final concentration 0.01 mmol/l, day 6 following induction of differentiation) is given as 1.0 times; in the data set with ANSC-7 cells [2] (final concentration 0.1 mmol/l, day 6 following induction of differentiation), 1.1 times; in the data set with ANSC-7 cells [2] (final concentration 1 mmol/l, day 6 following induction of differentiation) it was 1.2 times; in the data set with ANSC-7 cells [2] (final concentration 3 mmol/l, day 6 following induction of differentiation) it was 1.2 times.

As for “associated Aβ: beta amyloid peptide Aβ [1-40] incubated to form an associated product”, in the data set with ANSC-7 cells [1] (final concentration 0.1 mg/ml, vs PBS), the “decrease in number of Tuj1 positive neurons” value was determined as 78%. Besides, in the data set with ANSC-7 cells [3], the “increase in number of apoptotic positive cells” value is 14%.

Take indirubin-3′-monoxime: the “number of Tuj1 positive neurons in comparison with the negative control” value in the data set with ANSC-7 cells [2] (final concentration 1 μmol/l, day 6) is reported as 1.4 times.

Turning to “siRNA-B1: double stranded siRNA having SEQ ID NO: 14 and 15, specific for GSK-3β (chain 1 GUCAGUUACACAGACACUAUU; chain 2 UAGUGUCUGUGUAACUGACUU; listed as RNA, chemistry not given here)”, the “amount of GSK-3α” value with GSK-3α is listed as “unchanged”. For the same compound, the “number of Tuj1 positive neurons in comparison with the negative control siRNA” value in the data set on ANSC-7 cells [4] amounted to 2.5 times.

Consider “siRNA-B2: double stranded siRNA having SEQ ID NO: 16 and 17, specific for GSK-3β (chain 1 GUCUAGCCUAUAUCCAUUCUU; chain 2 GAAUGGAUAUAGGCUAGACUU; listed as RNA, chemistry not given here)”, for which the “amount of GSK-3α” value with GSK-3α was “unchanged”. Moreover, the “number of Tuj1 positive neurons in comparison with the negative control siRNA” value in the data set with ANSC-7 cells [4] is 1.9 times.
